Results as given in ChEMBL document CHEMBL1201862, “PubChem BioAssay data set” (2004).
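Protocol summary: plate cells (96-well), add compound at 5 concentrations, incubate 48 h, interpolate endpoints linearly. Here, GI50 denotes the concentration required for 50% inhibition of growth.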 Activity calls are given as the source filed them. Cut-off read from the data, not from the text of the source: active = GI50 up to about 1.1 µM and inactive = higher.

What was measured:
Test in all cases: growth of human tumour cells (NCI), 48 h
HCC 2998 = tested on: HCC 2998
K562 = tested on: K562
COLO 205 = tested on: COLO 205
TK-10 = tested on: TK-10
OVCAR-4 = tested on: OVCAR-4
SNB-19 = tested on: SNB-19
NCI-H522 = tested on: NCI-H522
MDA-MB-435 = tested on: MDA-MB-435
HCT-116 = tested on: HCT-116
SK-MEL-2 = tested on: SK-MEL-2
SNB-75 = tested on: SNB-75
CAKI-1 = tested on: CAKI-1
SK-OV-3 = tested on: SK-OV-3
Hs-578T = tested on: Hs-578T
HL-60 = tested on: HL-60
SF-295 = tested on: SF-295
MOLT-4 = tested on: MOLT-4
SF-539 = tested on: SF-539

Measured: GI50

Nc1nc(SCc2ccccn2)c2ncn(C3CCCC3)c2n1
inactive: HCC 2998 > 100 µM | K562 > 100 µM | COLO 205 > 100 µM | TK-10 > 100 µM | OVCAR-4 > 100 µM | SNB-19 > 100 µM | NCI-H522 59.7 µM | MDA-MB-435 > 100 µM | HCT-116 > 100 µM | SK-MEL-2 > 100 µM | SNB-75 40.5 µM | CAKI-1 > 100 µM | SK-OV-3 > 100 µM | Hs-578T 25.9 µM | HL-60 97.3 µM | SF-295 > 100 µM

CC(C)=NN/C(=N\c1ccc(Cl)cc1)NS(=O)(=O)c1ccc(C)cc1
inactive: K562 69.3 µM | COLO 205 > 100 µM | TK-10 50.8 µM | OVCAR-4 51.1 µM | SNB-19 > 100 µM | NCI-H522 56.8 µM | MDA-MB-435 92.9 µM | MOLT-4 41.5 µM | HCT-116 76.4 µM | SK-MEL-2 73.1 µM | CAKI-1 62.2 µM | Hs-578T > 100 µM | HL-60 97.5 µM | SF-295 35.2 µM

O=C(N/N=C/c1ccco1)c1cc(I)cc(I)c1O
inactive: K562 27.6 µM | COLO 205 3.02 µM | OVCAR-4 35.8 µM | SNB-19 32.2 µM | SF-539 11.8 µM | NCI-H522 27.2 µM | MDA-MB-435 16.9 µM | MOLT-4 26.3 µM | HCT-116 23.5 µM | SK-MEL-2 5.22 µM | SNB-75 37.2 µM | CAKI-1 19.4 µM | Hs-578T 34.5 µM | HL-60 10.5 µM

Cc1ccccc1/N=N/c1c(O)ccc2ccccc12
inactive: K562 > 100 µM | COLO 205 > 100 µM | TK-10 > 100 µM | OVCAR-4 70.5 µM | SNB-19 > 100 µM | NCI-H522 > 100 µM | MDA-MB-435 > 100 µM | MOLT-4 > 100 µM | HCT-116 69.5 µM | SK-MEL-2 > 100 µM | SNB-75 > 100 µM | CAKI-1 > 100 µM | SK-OV-3 > 100 µM | Hs-578T 49.3 µM | HL-60 > 100 µM | SF-295 77.1 µM

COC1=CC2=NCCc3n[nH]c(c32)C1=O
inactive: HCC 2998 47.1 µM | COLO 205 17.7 µM | TK-10 22.1 µM | SNB-19 46 µM | SF-539 17.3 µM | NCI-H522 3.51 µM | MDA-MB-435 11.5 µM | MOLT-4 18.6 µM | HCT-116 13.7 µM | SK-MEL-2 15.3 µM | Hs-578T 29.8 µM | SF-295 28.1 µM
active: K562 0.0545 µM | HL-60 0.0482 µM

ClC1=C(Cl)C2OC3C=CCC3OC2C(Cl)=C1Cl (stereo unspecified)
inactive: HCC 2998 29.4 µM | K562 37.8 µM | TK-10 > 100 µM | OVCAR-4 > 100 µM | SF-539 > 100 µM | NCI-H522 32.2 µM | MDA-MB-435 56.9 µM | MOLT-4 35.3 µM | HCT-116 32.9 µM | SK-MEL-2 18.8 µM | CAKI-1 > 100 µM | SK-OV-3 > 100 µM | Hs-578T 27.5 µM | HL-60 36.1 µM | SF-295 > 100 µM

Cc1ccc(N2C3=C(CC4=C2CC(C)(C)CC4=O)C(=O)CC(C)(C)C3)cc1
inactive: HCC 2998 > 100 µM | K562 > 100 µM | COLO 205 > 100 µM | TK-10 > 100 µM | OVCAR-4 > 100 µM | SNB-19 > 100 µM | SF-539 > 100 µM | MDA-MB-435 > 100 µM | MOLT-4 > 100 µM | HCT-116 > 100 µM | SNB-75 27.6 µM | CAKI-1 > 100 µM | SK-OV-3 > 100 µM | Hs-578T 20.6 µM | HL-60 > 100 µM | SF-295 > 100 µM

COC(=O)C1=C(C(=O)OC)SC(=C2SC3=C(SC(=C4SCCS4)S3)S2)S1
inactive: K562 > 100 µM | COLO 205 > 100 µM | TK-10 > 100 µM | SNB-19 > 100 µM | NCI-H522 > 100 µM | MDA-MB-435 > 100 µM | MOLT-4 > 100 µM | HCT-116 > 100 µM | SK-MEL-2 > 100 µM | CAKI-1 > 100 µM | SK-OV-3 > 100 µM | Hs-578T 86.5 µM | HL-60 > 100 µM | SF-295 > 100 µM
active: SNB-75 0.0302 µM

NNC(=O)c1cc(=O)[nH][nH]1
inactive: K562 > 100 µM | COLO 205 > 100 µM | TK-10 > 100 µM | OVCAR-4 > 100 µM | SNB-19 > 100 µM | SF-539 > 100 µM | NCI-H522 > 100 µM | MDA-MB-435 > 100 µM | MOLT-4 > 100 µM | HCT-116 > 100 µM | SK-MEL-2 > 100 µM | SNB-75 > 100 µM | CAKI-1 > 100 µM | SK-OV-3 > 100 µM | Hs-578T > 100 µM | SF-295 > 100 µM

COc1cccc2c(=O)c3c(O)c4cc(N(C)C)ccc4c(OC(C)=O)c3oc12
inactive: HCC 2998 15 µM | K562 15.6 µM | COLO 205 4.1 µM | TK-10 15.3 µM | OVCAR-4 13.5 µM | SNB-19 33.2 µM | SF-539 17.2 µM | MDA-MB-435 12.6 µM | MOLT-4 3.1 µM | HCT-116 13.9 µM | SK-MEL-2 16.3 µM | SNB-75 15.5 µM | CAKI-1 5.24 µM | SK-OV-3 32.4 µM | Hs-578T 14.3 µM | HL-60 3.96 µM | SF-295 25.1 µM

NC(=O)c1cc2ccccc2o/c1=N/c1ccccc1
inactive: HCC 2998 > 100 µM | K562 > 100 µM | COLO 205 > 100 µM | OVCAR-4 > 100 µM | SNB-19 > 100 µM | SF-539 > 100 µM | MDA-MB-435 > 100 µM | MOLT-4 > 100 µM | HCT-116 > 100 µM | SK-MEL-2 > 100 µM | SNB-75 > 100 µM | CAKI-1 > 100 µM | SK-OV-3 > 100 µM | Hs-578T > 100 µM | HL-60 > 100 µM

COc1cc(Br)cc2cc(-c3cn4c(n3)sc3ccccc34)c(=O)oc12
inactive: K562 13.6 µM | COLO 205 38.7 µM | TK-10 45.4 µM | OVCAR-4 26.1 µM | SNB-19 32.7 µM | SF-539 30.9 µM | NCI-H522 14.5 µM | MDA-MB-435 24.4 µM | MOLT-4 20.9 µM | HCT-116 21.3 µM | SK-MEL-2 22.3 µM | CAKI-1 22.9 µM | SK-OV-3 30.1 µM | Hs-578T 15.6 µM | HL-60 15.6 µM | SF-295 19.8 µM

O=C(/C=C/c1ccc(Oc2cc(C(=O)/C=C/c3ccc(O)cc3)c(O)cc2O)cc1)c1ccc(O)cc1O [RHUSCHALCONE II]
inactive: K562 3.47 µM | COLO 205 2.61 µM | TK-10 3.07 µM | OVCAR-4 4.98 µM | SNB-19 6.89 µM | SF-539 2.43 µM | NCI-H522 4.82 µM | MDA-MB-435 4.15 µM | MOLT-4 4.09 µM | HCT-116 2.25 µM | SK-MEL-2 7.6 µM | SNB-75 4.63 µM | CAKI-1 4.14 µM | SK-OV-3 3.17 µM | Hs-578T 7.28 µM | HL-60 4.14 µM | SF-295 5.96 µM
